Read-outs that look alike come from different tables or passages of the source.
Columns and labels:
Type in all cases: in vivo
[1] = system: Yellow Fever Mosquito (Aedes aegypti, AEDSAE); settings: for YFM rating: Yellow Fever Mosquito, Table ABC / ABC-DP rating; for YFM: Table ABC: Biological Results, species YFM
Procedure, shortened: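 Larvae ~1 day old, in liver powder/water; compound from 4000 ppm DMSO stock diluted with water/acetone (90:10); 6 reps; lidded, RT, 3 d; mortality scored per well, rated.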

[2] = system: Green Peach Aphid (Myzus persicae, MYZUPE); assay: Bioassays on Green Peach Aphid (GPA), foliar spray on cabbage seedlings; settings: 72 h
Procedure, shortened: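 Percent control (Abbott-corrected versus solvent-sprayed plants) comes from live-aphid counts three days after treatment at about 25° C. Test solution at 200 ppm was sprayed to runoff onto both leaf surfaces of cabbage seedlings infested a day earlier with 20-50 aphids; four replicate pots.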

[3] = system: Cabbage Looper (Trichoplusia ni, TRIPNI); assay: Bioassays on Cabbage Looper (CL), 128-well diet tray assay; settings: for pest or weed control at 50 µg/cm2: Trichoplusia ni
Procedure, shortened: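 Activity is mean percent mortality over eight wells of second-instar larvae exposed to diet treated at 50 μg/cm^2 for 5–7 days at 25° C.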

[4] = system: Beet Armyworm (Spodoptera exigua, LAPHEG); assay: Bioassays on Beet Armyworm (BAW), 128-well diet tray assay; settings: for pest or weed control at 50 µg/cm2: Spodoptera exigua
Procedure, shortened: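 Percent larval mortality, averaged across eight wells, scored after five to seven days at 25° C. under 14:10 light-dark. Each well held one to five second instars feeding on diet dosed at 50 μg/cm^2 with compound from 90:10 acetone-water, solvent dried off.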

[5] = Green Peach Aphid, Table ABC / ABC-DP rating, read-out: GPA rating
[6] = Cabbage Looper, Table ABC / ABC-DP rating, read-out: CL rating
[7] = Beet Armyworm, Table ABC / ABC-DP rating, read-out: BAW rating
[8] = Table ABC: Biological Results, species GPA, read-out: GPA
[9] = Table ABC: Biological Results, species CL, read-out: CL
[10] = Table ABC: Biological Results, species BAW, read-out: BAW

| SMILES | YFM rating [1] | pest or weed control at 200 µg/mL [2, 5] [%] | pest or weed control at 50 µg/cm2 [3, 6] [%] | pest or weed control at 50 µg/cm2 [4, 7] [%] | CL rating ([3]; Cabbage Looper, Table ABC / ABC-DP rating) | BAW rating ([4]; Beet Armyworm, Table ABC / ABC-DP rating) | YFM [1] | pest or weed control at 200 µg/mL [2, 8] [%] | pest or weed control at 50 µg/cm2 [3, 9] [%] | pest or weed control at 50 µg/cm2 [4, 10] [%] |
| --- | --- | --- | --- | --- | --- | --- | --- | --- | --- | --- |
| CC(F)(F)CNC(=O)c1cc(NC(=O)[C@H]2[C@H](c3cc(Cl)cc(Cl)c3)C2(Cl)Cl)ccc1Cl (relative stereo) [F2075, trans-2-Chloro-5-(2,2-dichloro-3-(3,5-dichlorophenyl)cyclopropane-1-carboxamido)-N-(2,2-difluoropropyl)benzamide] | B (More than 0 – Less than 80) | 80 to 100 | 50 to 100 | 50 to 100 | – | – | – | – | – | – |
| O=C(CNC(=O)c1cc(NC(=O)[C@H]2[C@H](c3cc(Cl)cc(Cl)c3)C2(Cl)Cl)ccc1Cl)NCC(F)(F)F (relative stereo) [F2078, trans-2-Chloro-5-(2,2-dichloro-3-(3,5-dichlorophenyl)cyclopropane-1-carboxamido)-N-(2-oxo-2-(2,2,2-trifluoroethylamino)ethyl)benzamide] | A (80–100) | 80 to 100 | 50 to 100 | 50 to 100 | – | – | – | – | – | – |
| O=C(CCCNC(=O)c1cc(NC(=O)[C@H]2[C@H](c3cc(Cl)cc(Cl)c3)C2(Cl)Cl)ccc1Cl)NCC(F)(F)F (relative stereo) [F2080, trans-2-Chloro-5-(2,2-dichloro-3-(3,5-dichlorophenyl)cyclopropane-1-carboxamido)-N-(4-oxo-4-(2,2,2-trifluoroethylamino)butyl)benzamide] | B (More than 0 – Less than 80) | 0 to 80 | 50 to 100 | 50 to 100 | – | – | – | – | – | – |
| O=C(CNC(=O)c1cc(NC(=O)[C@H]2[C@H](c3cc(Cl)cc(Cl)c3)C2(Cl)Cl)ccc1Cl)NCCC(F)(F)F (relative stereo) [F2081, trans-2-Chloro-5-(2,2-dichloro-3-(3,5-dichlorophenyl)cyclopropane-1-carboxamido)-N-(2-oxo-2-(3,3,3-trifluoropropylamino)ethyl)benzamide] | A (80–100) | 80 to 100 | 50 to 100 | 50 to 100 | – | – | – | – | – | – |
| O=C(NCCNC(=O)C(F)(F)F)c1cc(NC(=O)[C@H]2[C@H](c3cc(Cl)cc(Cl)c3)C2(Cl)Cl)ccc1Cl (relative stereo) [F2082, trans-2-Chloro-5-(2,2-dichloro-3-(3,5-dichlorophenyl)cyclopropane-1-carboxamido)-N-(2-(2,2,2-trifluoroacetamido)ethyl)benzamide] | B (More than 0 – Less than 80) | 80 to 100 | – | – | A (50–100) | A (50–100) | – | – | – | – |
| Nc1ccc(F)c(NC(=O)c2cc(NC(=O)[C@H]3[C@H](c4cc(Cl)cc(Cl)c4)C3(Cl)Cl)ccc2Cl)c1F [F1227, N-(3-Amino-2,6-difluorophenyl)-2-chloro-5-((1R,3R)-2,2-dichloro-3-(3,5-dichlorophenyl)cyclopropane-1-carboxamido)benzamide] | – | – | – | – | – | – | A (80–100) | 0 to 80 | 50 to 100 | 50 to 100 |
| Nc1ccc(F)c(NC(=O)c2cc(NC(=O)[C@H]3[C@H](c4cc(Cl)c(Cl)c(Cl)c4)C3(Cl)Cl)ccc2Cl)c1F [F1228, N-(3-Amino-2,6-difluorophenyl)-2-chloro-5-((1R,3R)-2,2-dichloro-3-(3,4,5-trichlorophenyl)cyclopropane-1-carboxamido)benzamide] | – | – | – | – | – | – | A (80–100) | 0 to 80 | 50 to 100 | 50 to 100 |
| O=C(Nc1c(F)ccc(NC(=O)C(F)F)c1F)c1cc(NC(=O)[C@H]2[C@H](c3ccc(F)c(Cl)c3)C2(Cl)Cl)ccc1Cl [F1234, 2-Chloro-5-((1R,3R)-2,2-dichloro-3-(3-chloro-4-fluorophenyl)cyclopropane-1-carboxamido)-N-(3-(2,2-difluoroacetamido)-2,6-difluorophenyl)benzamide] | – | – | – | – | – | – | A (80–100) | 80 to 100 | 50 to 100 | 50 to 100 |
| O=C(Nc1c(F)ccc(NC(=O)C(F)F)c1F)c1cc(NC(=O)[C@H]2[C@H](c3cc(Cl)c(Cl)c(Cl)c3)C2(Cl)Cl)ccc1Cl [F1238, 2-Chloro-5-((1R,3R)-2,2-dichloro-3-(3,4,5-trichlorophenyl)cyclopropane-1-carboxamido)-N-(3-(2,2-difluoroacetamido)-2,6-difluorophenyl)benzamide] | – | – | – | – | – | – | A (80–100) | 0 to 80 | 50 to 100 | 50 to 100 |
| O=C(Nc1c(F)ccc(NC(=O)C(F)F)c1F)c1cc(NC(=O)[C@H]2[C@H](c3ccc(Cl)c(Cl)c3)C2(Cl)Cl)ccc1Cl [F1240, 2-Chloro-5-((1R,3R)-2,2-dichloro-3-(3,4-dichlorophenyl)cyclopropane-1-carboxamido)-N-(3-(2,2-difluoroacetamido)-2,6-difluorophenyl)benzamide] | – | – | – | – | – | – | A (80–100) | 0 to 80 | 50 to 100 | 50 to 100 |
| O=C(Nc1c(F)ccc(NC(=O)C(F)F)c1F)c1cc(NC(=O)[C@H]2[C@H](c3cc(Cl)cc(Cl)c3)C2(Cl)Cl)ccc1Cl [F1241, 2-Chloro-5-((1R,3R)-2,2-dichloro-3-(3,5-dichlorophenyl)cyclopropane-1-carboxamido)-N-(3-(2,2-difluoroacetamido)-2,6-difluorophenyl)benzamide] | – | – | – | – | – | – | A (80–100) | 80 to 100 | 50 to 100 | 50 to 100 |
| O=C(Nc1cc(NC(=O)C(F)F)c(F)cc1F)c1cc(NC(=O)[C@H]2[C@H](c3ccc(Cl)c(Cl)c3)C2(Cl)Cl)ccc1Cl [F1242, 2-Chloro-5-((1R,3R)-2,2-dichloro-3-(3,4-dichlorophenyl)cyclopropane-1-carboxamido)-N-(5-(2,2-difluoroacetamido)-2,4-difluorophenyl)benzamide] | – | – | – | – | – | – | A (80–100) | 0 to 80 | 50 to 100 | 50 to 100 |
| O=C(Nc1cc(NC(=O)C(F)(F)Cl)c(F)cc1F)c1cc(NC(=O)[C@H]2[C@H](c3ccc(Cl)c(Cl)c3)C2(Cl)Cl)ccc1Cl [F1243, 2-Chloro-N-(5-(2-chloro-2,2-difluoroacetamido)-2,4-difluorophenyl)-5-((1R,3R)-2,2-dichloro-3-(3,4-dichlorophenyl)cyclopropane-1-carboxamido)benzamide] | – | – | – | – | – | – | A (80–100) | 0 to 80 | 50 to 100 | 50 to 100 |
| O=C(Nc1cc(NC(=O)C(F)(F)F)c(F)cc1F)c1cc(NC(=O)[C@H]2[C@H](c3ccc(Cl)c(Cl)c3)C2(Cl)Cl)ccc1Cl [F1245, 2-Chloro-5-((1R,3R)-2,2-dichloro-3-(3,4-dichlorophenyl)cyclopropane-1-carboxamido)-N-(2,4-difluoro-5-(2,2,2-trifluoroacetamido)phenyl)benzamide] | – | – | – | – | – | – | A (80–100) | 0 to 80 | 50 to 100 | 50 to 100 |

From patent US20250228239A1, “MOLECULES HAVING PESTICIDAL UTILITY, AND INTERMEDIATES, COMPOSITIONS, AND PROCESSES, RELATED THERETO” (priority 2024, published 2025)
